± gives the expanded uncertainty stated by the source.
Assay: wn = mass fraction of the nth substance listed
Conditions: 101.33 kPa, Liquid

CC(C)(N)CO [2-amino-2-methylpropan-1-ol] + O
w1 = 0.3
Conditions	mass density [kg/m3]	viscosity [mPa·s]
298 K	997 ± 1.3	3.637 ± 0.11
303 K	994.2 ± 1.4	2.964 ± 0.091
308 K	991.4 ± 1.4	2.446 ± 0.075
313 K	988.4 ± 1.4	2.043 ± 0.063
318 K	985.4 ± 1.5	1.696 ± 0.053
323 K	982.1 ± 1.5	1.425 ± 0.044
328 K	978.8 ± 1.5	1.237 ± 0.039
333 K	975.5 ± 1.6	1.081 ± 0.034

C1CNCCN1 [piperazine] + O
Conditions	mass density, w1 = 0.0174 [kg/m3]	mass density, w1 = 0.0345 [kg/m3]	mass density, w1 = 0.0516 [kg/m3]	mass density, w1 = 0.0688 [kg/m3]	viscosity, w1 = 0.0174 [mPa·s]	viscosity, w1 = 0.0344 [mPa·s]	viscosity, w1 = 0.0516 [mPa·s]	viscosity, w1 = 0.0688 [mPa·s]
298 K	997.8 ± 1.1	998.5 ± 1.1	999.4 ± 1.1	1000.6 ± 1.1	0.957 ± 0.03	1.021 ± 0.031	1.09 ± 0.033	1.169 ± 0.036
303 K	996.5 ± 1.2	997.2 ± 1.2	998.1 ± 1.2	999 ± 1.2	0.861 ± 0.027	0.915 ± 0.028	0.965 ± 0.03	1.035 ± 0.032
308 K	995.1 ± 1.2	995.7 ± 1.2	996.5 ± 1.2	997.6 ± 1.2	0.776 ± 0.024	0.805 ± 0.025	0.865 ± 0.027	0.91 ± 0.028
313 K	993.2 ± 1.2	994.1 ± 1.2	994.7 ± 1.3	995.6 ± 1.2	0.681 ± 0.022	0.718 ± 0.023	0.763 ± 0.024	0.821 ± 0.026
318 K	991.4 ± 1.3	992.2 ± 1.3	992.5 ± 1.3	993.8 ± 1.3	0.623 ± 0.02	0.652 ± 0.021	0.703 ± 0.022	0.731 ± 0.023
323 K	989.3 ± 1.3	990.2 ± 1.3	990.4 ± 1.3	991.4 ± 1.3	0.573 ± 0.018	0.592 ± 0.019	0.624 ± 0.02	0.663 ± 0.021
328 K	986.7 ± 1.4	987.4 ± 1.4	988 ± 1.4	989.1 ± 1.4	0.543 ± 0.018	0.543 ± 0.018	0.569 ± 0.018	0.604 ± 0.019
333 K	984.2 ± 1.4	984.5 ± 1.4	985.7 ± 1.4	987.4 ± 1.4	0.488 ± 0.016	0.505 ± 0.017	0.523 ± 0.017	0.546 ± 0.018
